# Reference: patent US8080377B2, “Method for confirming the exposure on chrysene” (Korea Institute of Science and Technology, priority 2008, dated 2011)
# Test system: HepG2 cells
# Assay: Quantitative real time RT-PCR of genes up- or down-regulated by chrysene
# Type: cell-based, human
# Description: […]
# To investigate and quantify the expressions of those genes, primers which can specifically proliferate of those genes' mRNA (see Table 4) were prepared, and quantitative real time RT-PCR was performed using My IQ Real-time PCR (Bio-rad, USA). […] To quantify PCR product, SYBR Green I (Bio-rad, USA) staining was performed. SYBR Green I staining is based on binding to double stranded DNA, so that as double stranded DNA increases during PCR, fluorescence intensity increases. […]
smiles,measurement,value
c1ccc2c(c1)ccc1c3ccccc3ccc21 [chrysene],expression profiles of 25 up-regulated genes and 10 down-regulated genes,consistent with the result of oligo-microarray
